Data set [1] is described as follows: vapour pressure measurement (Clausius-Clapeyron diagram). Format: physicochemical. The procedure:
The curve plotted in FIG. 2B represents the Clausius-Clapeyron diagram of the 1,3,5-trimethylborazine molecule, namely its vapour pressure measurement. 1,3,5-trimethylborazine has a vapour pressure of 40 Torr at 50° C. and greater than 200 Torr at 100° C., indicating a good volatility.

For a further data set, the system named is rat. To be noted: cited from earlier work.
Data set [2] can be described thus: thermogravimetric analysis. Format: physicochemical. As to conditions: ramp 20 to 400° C., 10° C./min, 30 mL/min helium. The procedure:
A thermogravimetric analysis of 1,3,5-trimethylborazine was carried out over a temperature ramp of 20 to 400° C., with a rise of 10° C./min under 30 mL/min of helium.
Curve 2 from FIG. 2A plotted as a lighter line represents the loss in mass of the sample as a function of the temperature. The final value of the residue level of 3.2% indicates a high purity and good thermal stability of 1,3,5-trimethylborazine. This residue level is reached at 165° C.
Thermogravimetric analysis of tri-butylborane was carried out over a temperature ramp of 20 to 400° C., with a rise of 10° C./min under 30 mL/min of helium.
Curve 2 from FIG. 4 plotted as a lighter line represents the loss in mass of the sample as a function of the temperature.

Molecules are shown by their SMILES. Read-outs that look alike come from different tables or passages of the source.

In the case of `CN1BN(C)BN(C)B1` [1,3,5-trimethylborazine], the vapour pressure is 40 Torr in data set [1] (at 50° C.) and “greater than 200 Torr” in data set [1] (at 100° C.). Moreover, the “toxicity qualification with reference to LD50 oral, rat” value (“toxicity qualification with reference” below) in the data set on rat (in vivo, po) was “slightly toxic to almost non-toxic”. Moreover, the “final value of the residue level (thermal stability)” value in data set [2] was 3.2%.
In the case of `B.B` [diborane], the “toxicity qualification with reference” value with rat (oral) is on record as “lethal”.
Regarding `CCCCB(CCCC)CCCC` [tri-n-butylborane], the “final value of the residue level (thermal stability)” value in data set [2] is 0.6%.
As for `CB(C)C` [trimethylborane], in the data set with rat (oral), the “toxicity qualification with reference” value was “very toxic”.

(Values after patent publication US8324014B2, “Process for depositing boron compounds by CVD or PVD” (L'Air Liquide Societe Anonyme pour l'Etude et …, priority 2007, dated 2012).)
